Data published in patent US12006330B2, “Substituted macrocyclic compounds and related methods of treatment” (Alkermes, Inc., priority 2020, dated 2024).
pEC50: −log10 of the molar value.

These compounds were tested against T1, human orexin-2 receptor (OX2R) (Homo sapiens, UniProt O43614) (assay: Human OX2R IP1 assay). Settings: T-Rex CHO cells stably overexpressing human OX2R; IP1 accumulation; 1 hr at 37 degrees C; mean EC50.
T1 construct: expressed in transfected cells
T1 sequence (O43614 1-444): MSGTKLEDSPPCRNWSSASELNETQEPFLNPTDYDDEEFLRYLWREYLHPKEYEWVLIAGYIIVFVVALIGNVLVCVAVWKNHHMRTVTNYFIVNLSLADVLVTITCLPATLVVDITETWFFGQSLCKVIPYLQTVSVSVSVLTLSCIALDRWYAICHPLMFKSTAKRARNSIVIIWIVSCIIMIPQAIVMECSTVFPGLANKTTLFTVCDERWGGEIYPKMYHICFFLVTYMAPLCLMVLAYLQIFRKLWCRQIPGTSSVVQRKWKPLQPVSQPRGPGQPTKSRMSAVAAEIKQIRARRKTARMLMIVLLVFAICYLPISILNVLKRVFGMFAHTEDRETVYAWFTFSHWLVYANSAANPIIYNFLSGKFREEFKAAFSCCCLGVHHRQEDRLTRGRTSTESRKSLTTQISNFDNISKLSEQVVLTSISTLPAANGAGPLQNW
Assay type: cell-based
Protocol: T-Rex CHO cells stably overexpressing the human orexin-2 receptor (OX2R) were induced overnight with 1 μg/mL of doxycycline in a T225 flask. 24 hours post induction, cells were lifted with accutase and plated into a 384-well proxy plate at 30,000 cells/well. Cells were then treated with different test compounds in 1× stimulation buffer containing 10 mM Hepes, 1 mM CaCl2), 0.5 mM MgCl2, 4.2 mM KCl, 146 mM NaCl, 5.5 mM glucose, and 50 mM LiCl, pH 7.4, for 1 hr at 37 degrees C. Following incubation, the reaction was terminated by the addition of detection mix, which is composed of IP1-d2 and anti-IP1-cryptate diluted in lysis buffer as well as 1× stimulation buffer. The plates were allowed to incubate for 1 hour at room temperature and were then read in the EnVision® multimode plate reader, measuring inositol phosphate levels.
Cisbio IP1 is a cell-based functional assay quantifying the accumulation of inositol monophosphate (IP), a metabolite released as a result of orexin 2 receptor activation through the phospholipase C-Gq signaling pathway. This is a competitive immunoassay in which the IP1 produced by the cells upon receptor activation competes with the IP1 analog coupled to the d2 fluorophore (acceptor) for binding to an anti-IP1 monoclonal antibody labeled with Eu cryptate (donor). The measured HTRF-FRET based signal is inversely proportional to the IP1 concentration produced.
The EC50 values reported in Table 2 were obtained according to the human OX2R IP1 assay described above. Data are the mean EC50 values S.E.M. Reference Compound A is methyl (2R,3S)-3-((methylsulfonyl)amino)-2-(((cis-4-phenylcyclohexyl)oxy)methyl)-piperidine-1-carboxylate (Example 5 of PCT publication No. WO2017/135306). Reference Compound B is N-((2S,3S)-1-(2-hydroxy-2-methylpropanoyl)-2-((2,3′,5′-trifluorobiphenyl-3-yl)methyl)pyrrolidin-3-yl)methanesulfonamide (Example 483 of PCT publication No. WO2019/027058).

Row | pEC50 | SMILES
1 | < 6.00 | O=S(=O)(N[C@H]1CCCN2CCOc3ncccc3[C@H]3CC[C@H](CC3)OC[C@@H]12)C1CC1 (stereo in doubt) [Compound 63]
2 | < 6.00 | CC(C)S(=O)(=O)N[C@H]1CCCN2CCOc3ncccc3[C@H]3CC[C@H](CC3)OC[C@@H]12 (stereo in doubt) [Compound 64]
3 | > 8.00 | O=C1COc2nccnc2[C@H]2CC[C@H](CC2)OC[C@H]2[C@@H](NS(=O)(=O)C3CC3)CCCN12 (stereo in doubt) [Compound 65]
4 | > 8.00 | CC(C)S(=O)(=O)N[C@H]1CCCN2C(=O)COc3nccnc3[C@H]3CC[C@H](CC3)OC[C@@H]12 (stereo in doubt) [Compound 66]
5 | 6.00 to 8.00 | O=C1COc2nnccc2[C@H]2CC[C@H](CC2)OC[C@H]2[C@@H](NS(=O)(=O)C3CC3)CCCN12 (stereo in doubt) [Compound 67]
6 | > 8.00 | Cc1ncnc2c1[C@H]1CC[C@H](CC1)OC[C@H]1[C@@H](NS(=O)(=O)C3CC3)CCCN1C(=O)CO2 (stereo in doubt) [Compound 68]
7 | > 8.00 | Cc1ncnc2c1[C@H]1CC[C@H](CC1)OC[C@H]1[C@@H](NS(=O)(=O)C(C)C)CCCN1C(=O)CO2 (stereo in doubt) [Compound 69]
8 | > 8.00 | Cc1cccc2c1[C@H]1CC[C@H](CC1)OC[C@H]1[C@@H](NS(=O)(=O)C3CC3)CCN1C(=O)CO2 (stereo in doubt) [Compound 70]
9 | > 8.00 | O=C1COc2cccc(F)c2[C@H]2CC[C@H](CC2)OC[C@H]2[C@@H](NS(=O)(=O)C3CC3)CCCN12 (stereo in doubt) [Compound 74]
10 | > 8.00 | Cc1c(Cl)ccc2c1[C@H]1CC[C@H](CC1)OC[C@H]1[C@@H](NS(=O)(=O)C3CC3)CCCN1C(=O)CO2 (stereo in doubt) [Compound 75]
11 | > 8.00 | Cc1ccc2c(c1C)[C@H]1CC[C@H](CC1)OC[C@H]1[C@@H](NS(=O)(=O)C(C)C)CCCN1C(=O)CO2 (stereo in doubt) [Compound 76]
12 | > 8.00 | Cc1ccc2c(c1C)[C@H]1CC[C@H](CC1)OC[C@H]1[C@@H](NS(=O)(=O)C3CC3)CCCN1C(=O)CO2 (stereo in doubt) [Compound 77]
13 | > 8.00 | Cc1ccc2c(c1C)[C@H]1CC[C@H](CC1)OC[C@H]1[C@@H](NS(C)(=O)=O)CCCN1C(=O)CO2 (stereo in doubt) [Compound 78]
14 | > 8.00 | Cc1cccc2c1[C@H]1CC[C@H](CC1)OC[C@H]1[C@@H](NS(=O)(=O)C(C)C)CCN1C(=O)CO2 (stereo in doubt) [Compound 79]
15 | > 8.00 | O=C1COc2ccccc2[C@H]2CC[C@H](CC2)OC[C@H]2[C@@H](NS(=O)(=O)C3COC3)CCCN12 (stereo in doubt) [Compound 80]
16 | 6.00 to 8.00 | Cc1ncnc2c1[C@H]1CC[C@H](CC1)OC[C@H]1[C@@H](NS(C)(=O)=O)CCN1C(=O)CO2 (stereo in doubt) [Compound 82]
17 | 6.00 to 8.00 | Cc1ncnc2c1[C@H]1CC[C@H](CC1)OC[C@H]1[C@@H](NS(=O)(=O)C3CC3)CCN1C(=O)CO2 (stereo in doubt) [Compound 83]
18 | 6.00 to 8.00 | Cc1ncnc2c1[C@H]1CC[C@H](CC1)OC[C@H]1[C@@H](NS(=O)(=O)C(C)C)CCN1C(=O)CO2 (stereo in doubt) [Compound 86]
19 | > 8.00 | Cc1ccnc2c1[C@H]1CC[C@H](CC1)OC[C@H]1[C@@H](NS(=O)(=O)C3COC3)CCCN1C(=O)CO2 (stereo in doubt) [Compound 88]
20 | > 8.00 | Cc1ccnc2c1[C@H]1CC[C@H](CC1)OC[C@H]1[C@@H](NS(=O)(=O)C3CC3)CCN1C(=O)CO2 (stereo in doubt) [Compound 92]
21 | > 8.00 | Cc1ccnc2c1[C@H]1CC[C@H](CC1)OC[C@H]1[C@@H](NS(=O)(=O)C(C)C)CCN1C(=O)CO2 (stereo in doubt) [Compound 93]
22 | > 8.00 | CS(=O)(=O)N[C@H]1CCCN2C(=O)COc3ccc(O)cc3[C@H]3CC[C@H](CC3)OC[C@@H]12 (stereo in doubt) [Compound 96]
23 | 6.00 to 8.00 | O=C1COc2ncncc2[C@H]2CC[C@H](CC2)OC[C@H]2[C@@H](NS(=O)(=O)C3CC3)CCCN12 (stereo in doubt) [Compound 97]
